Test results published in US10287267B2, “Isoquinolin-3-yl carboxamides and preparation and use thereof” (Samumed, LLC, priority 2016, dated 2019).
Like-named read-outs stand apart in the source and are kept apart here.

Legend:
[1] = test system: Wnt pathway (Sp5-Luc reporter, TCF/LEF binding sites) in SW480 colon carcinoma cells; test: Screening assay for Wnt activity: Sp5-Luc reporter gene assay; format: cell-based, human; details: Homo sapiens; for EC50: Sp5-Luc reporter, SW480 cells, 36 to 48 hours;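 for all read-outs here: firefly luciferase luminescence read in stably transduced SW480 cells carrying the Sp5 promoter reporter with eight TCF/LEF sites, compounds given in 0.1% DMSO final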
Description: The screening assay for Wnt activity is described as follows.
Following incubation, 15 μl of BriteLite Plus luminescence reagent (Perkin Elmer) was added to each well of the 384-well assay plates. The plates were placed on an orbital shaker for 2 min and then luminescence was quantified using the Envision (Perkin Elmer) plate reader.

[2] = molecular target: recombinant DYRK1A kinase (Homo sapiens (Human), UniProt Q13627); test: DYRK1A kinase assay (Ser/Thr 18 peptide Z-lyte FRET); format: biochemical; details: 30 μM ATP, 1 h room temperature;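 note: Read-out is the coumarin to fluorescein emission ratio, referenced to unphosphorylated (0%) and phosphorylated (100%) Ser/Thr 18 peptide controls, values from dose-response curves by non-linear regression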
[3] = molecular target: recombinant GSK3β kinase (Homo sapiens (Human), UniProt P49841); test: GSK3β kinase assay (Ser/Thr 09 peptide Z-lyte FRET); format: biochemical; details: 46 μM ATP, 1 h room temperature;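 note: kinase activity read as coumarin to fluorescein emission ratio, 11-point threefold dilutions from 10 µM to 0.0003 µM in duplicate, unphosphorylated and phosphorylated peptide as 0% and 100% controls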
[4] = test system: Tau phosphorylation at Ser396 (pSer396); test: Tau phosphorylation assay (pSer396 ELISA / western blot) in SH-SY5Y cells; format: cell-based, human; details: Homo sapiens, read-out: pSer396 Tau EC50;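 note: EC50 for reduction of Tau pSer396 in lysed cells, measured by colorimetric ELISA or chemiluminescent western blot, both using the same pSer396 antibody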
[5] = test system: SW480 colon carcinoma cells; test: Cell viability assay (CellTiter-Glo); format: cell-based, human; details: Homo sapiens; for EC50: 96 h, SW480 cells, CellTiter-Glo, four days incubation; for inhibition at 10 µM: SW480, read-out: percent inhibition at 10 μM
[6] = test system: α-smooth muscle actin (αSMA) positive LL29 cells; test: Inhibition of fibrotic process: αSMA in TGF-β1 treated primary human fibroblasts from IPF patients; format: cell-based; details: Homo sapiens, Fibroblast; for EC50: 96 h, Table 8, LL29 fibroblasts from IPF patients, TGF-β1 20 ng/mL, 4 days, dose-response 10 μM to 0.94 nM; for inhibition at 10 µM: read-out: percent value in parentheses beside EC50 >10 μM;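 for all read-outs here: controls were TGF-β1 stimulated wells with DMSO vehicle (positive) and cells given DMSO alone (negative), cultured in F12 medium with 1% fetal bovine serum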
[7] = test system: IL-6; test: IL-6 inhibition in LPS-stimulated human peripheral blood mononuclear cells (HTRF); format: cell-based; details: Homo sapiens, PBMC; for EC50: Table 9, huPBMCs, LPS 50 ng/mL, 22 hours, dose-response starting from 10 μM;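 for all read-outs here: IL-6 detected by HTRF with an XL665- and Cryptate-labelled anti-IL-6 antibody pair, samples run in duplicate, EC50 obtained from a four-parameter Levenberg-Marquardt curve fit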
Description: After 22 hour incubation, a mixture of anti-IL6 XL665 and anti-IL-6 Cryptate diluted in reconstitution buffer (Catalog #62IL6PEC, Cisbio Inc., Bedford, Mass.) was added to each well. […] All samples were processed in duplicate. […] EC50 was determined using software generated by Dotmatics Limited (Windhill Bishops Stortford Herts, UK) using the Levenberg-Marquardt 4 parameter fitting procedure with finite different gradients.

[8] = SH-SY5Y cells, overnight (16-18 h) exposure

Sequence of recombinant GSK3β kinase (P49841 whole entry): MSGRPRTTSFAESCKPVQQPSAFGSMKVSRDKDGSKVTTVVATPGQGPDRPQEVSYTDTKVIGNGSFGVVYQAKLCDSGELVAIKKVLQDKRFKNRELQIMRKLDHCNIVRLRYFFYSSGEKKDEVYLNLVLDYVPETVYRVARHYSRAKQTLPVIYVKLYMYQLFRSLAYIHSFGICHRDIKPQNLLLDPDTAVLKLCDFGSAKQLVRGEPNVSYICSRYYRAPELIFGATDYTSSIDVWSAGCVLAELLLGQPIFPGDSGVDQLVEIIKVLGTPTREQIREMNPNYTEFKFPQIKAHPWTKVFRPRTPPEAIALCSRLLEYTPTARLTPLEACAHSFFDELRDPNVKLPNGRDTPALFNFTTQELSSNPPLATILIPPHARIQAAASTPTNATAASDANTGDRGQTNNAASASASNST

Row | SMILES | EC50 [1] [nM] | EC50 [2] [nM] | EC50 [3] [nM] | EC50 [4, 8] [nM] | EC50 [5] [nM] | EC50 [6] [nM] | inhibition at 10 µM [6] [%] | EC50 [7] [nM] | inhibition at 10 µM [5] [%] | EC50 ([4]; SH-SY5Y) [nM] | inhibition at 10 µM ([1]; SW480, read-out: percent inhibition at 10 μM) [%] | inhibition at 10 µM ([7]; read-out: percent value in parentheses beside EC50 >10 μM) [%]
1 | O=C(CN1CCCC1)Nc1cc2cc(-c3cnn(C4CC4)c3)ccc2cn1 [Compound 286, N-(6-(1-Cyclopropyl-1H-pyrazol-4-yl)isoquinolin-3-yl)-2-(pyrrolidin-1-yl) acetamide] | 3140 | 64.9 | 186 | 1150 | 3290 | > 10000 | 16.4 | 1230 | – | – | – | –
2 | CC(C(=O)Nc1cc2cc(-c3cnn(C)c3)ccc2cn1)N1CCCC1 (stereo not shown) [Compound 288, N-(6-(1-Methyl-1H-pyrazol-4-yl)isoquinolin-3-yl)-2-(pyrrolidin-1-yl) propanamide] | 1200 | 27.3 | 20 | 159 | 2660 | 532 | – | 1240 | – | – | – | –
3 | C[C@@H]1CCCN1CC(=O)Nc1cc2cc(-c3cnn(C)c3)ccc2cn1 [Compound 289, (R)—N-(6-(1-Methyl-1H-pyrazol-4-yl)isoquinolin-3-yl)-2-(2-methylpyrrolidin-1-yl)acetamide] | 2650 | 13.7 | 62 | 185 | 7760 | > 10000 | 14.3 | 3200 | – | – | – | –
4 | C[C@H]1CCCN1CC(=O)Nc1cc2cc(-c3cnn(C)c3)ccc2cn1 [Compound 290, (S)—N-(6-(1-Methyl-1H-pyrazol-4-yl)isoquinolin-3-yl)-2-(2-methylpyrrolidin-1-yl)acetamide] | 5230 | 5.8 | 75 | 490 | 3780 | 1060 | – | 4780 | – | – | – | –
5 | Cn1cc(-c2ccc3cnc(NC(=O)CN4CC5CC5C4)cc3c2)cn1 (stereo not shown) [Compound 291, 2-(3-Azabicyclo[3.1.0]hexan-3-yl)-N-(6-(1-methyl-1H-pyrazol-4-yl)isoquinolin-3-yl)acetamide] | 4640 | 8.2 | 43 | 716 | > 10000 | > 10000 | 49.6 | 9830 | 24.4 | – | – | –
6 | Cn1cc(-c2ccc3cnc(NC(=O)CN4C5CCC4CC5)cc3c2)cn1 [Compound 292, 2-(7-Azabicyclo[2.2.1]heptan-7-yl)-N-(6-(1-methyl-1H-pyrazol-4-yl)isoquinolin-3-yl)acetamide] | 3380 | 7.8 | 173 | – | 2820 | 2220 | – | 1120 | – | 1350 | – | –
7 | CC1CCN(CC(=O)Nc2cc3cc(-c4cnn(C)c4)ccc3cn2)CC1 [Compound 293, N-(6-(1-Methyl-1H-pyrazol-4-yl)isoquinolin-3-yl)-2-(4-methylpiperidin-1-yl)acetamide] | 3220 | 5 | 59 | 668 | 2860 | 7770 | – | 1170 | – | – | – | –
8 | Cn1cc(-c2ccc3cnc(NC(=O)CN4CCC(C(F)(F)F)CC4)cc3c2)cn1 [Compound 294, N-(6-(1-Methyl-1H-pyrazol-4-yl)isoquinolin-3-yl)-2-(4-(trifluoromethyl)piperidin-1-yl)acetamide] | 5190 | 12.4 | 41 | 905 | 4150 | > 10000 | 41.3 | 6230 | – | – | – | –
9 | Cn1cc(-c2ccc3cnc(NC(=O)CN4CCC5(CC4)CC5)cc3c2)cn1 [Compound 296, N-(6-(1-Methyl-1H-pyrazol-4-yl)isoquinolin-3-yl)-2-(6-azaspiro[2.5]octan-6-yl)acetamide] | 3480 | 14.3 | 80 | 978 | 3460 | 1960 | – | 1580 | – | – | – | –
10 | O=C(Nc1cc2cc(-c3cnn(C4CC4)c3)ccc2cn1)C1CCN(CCC(F)(F)F)CC1 [Compound 297, N-(6-(1-Cyclopropyl-1H-pyrazol-4-yl)isoquinolin-3-yl)-1-(3,3,3-trifluoropropyl)piperidine-4-carboxamide] | 4810 | 23.7 | 155 | 1420 | 5720 | 447 | – | 1170 | – | – | – | –
11 | Cn1ncc(-c2ccc3cnc(NC(=O)C4CCC(F)(F)CC4)cc3c2)c1CN1CCC1 [Compound 298, N-(6-(5-(Azetidin-1-ylmethyl)-1-methyl-1H-pyrazol-4-yl)isoquinolin-3-yl)-4,4-difluorocyclohexane-1-carboxamide] | 3230 | 13.5 | 125 | 1390 | 2380 | 1340 | – | 5530 | – | – | – | –
12 | Cn1ncc(-c2ccc3cnc(NC(=O)C4CCC(F)(F)CC4)cc3c2)c1CN1CCCC1 [Compound 299, 4,4-Difluoro-N-(6-(1-methyl-5-(pyrrolidin-1-ylmethyl)-1H-pyrazol-4-yl)isoquinolin-3-yl)cyclohexane-1-carboxamide] | 1530 | 6.7 | 44 | 573 | 2240 | 1210 | – | 4530 | – | – | – | –
13 | Cn1ncc(-c2ccc3cnc(NC(=O)C4CCC(F)(F)CC4)cc3c2)c1CN1CCCCC1 [Compound 300, 4,4-Difluoro-N-(6-(1-methyl-5-(piperidin-1-ylmethyl)-1H-pyrazol-4-yl)isoquinolin-3-yl)cyclohexane-1-carboxamide] | 1120 | 8.2 | 31 | 222 | 1300 | 511 | – | 2740 | – | – | – | –
14 | Cn1cc(-c2ccc3cnc(NC(=O)C4CC5(CCN(CCF)CC5)C4)cc3c2)cn1 [Compound 301, 7-(2-Fluoroethyl)-N-(6-(1-methyl-1H-pyrazol-4-yl)isoquinolin-3-yl)-7-azaspiro[3.5]nonane-2-carboxamide] | 467 | 2 | 10 | 108 | 550 | 4810 | – | 393 | – | – | – | –
15 | CN(CC(=O)Nc1cc2cc(-c3cnn(C)c3)ccc2cn1)C1CCC1 [Compound 302, 2-(Cyclobutyl(methyl)amino)-N-(6-(1-methyl-1H-pyrazol-4-yl)isoquinolin-3-yl)acetamide] | 3650 | 7.7 | 38 | 628 | > 10000 | 901 | – | 7700 | 34.9 | – | – | –
16 | CCN(CC)CC(=O)Nc1cc2cc(-c3cnn(C)c3)ccc2cn1 [Compound 303, 2-(Diethylamino)-N-(6-(1-methyl-1H-pyrazol-4-yl)isoquinolin-3-yl) acetamide] | 9830 | 8 | 89 | 783 | 7800 | 817 | – | 5240 | – | – | – | –
17 | [2H]C([2H])([2H])n1cc(-c2ccc3cnc(NC(=O)C4CCN(CCC(F)(F)F)CC4)cc3c2)cn1 [Compound 304, N-(6-(1-(Methyl-d3)-1H-pyrazol-4-yl)isoquinolin-3-yl)-1-(3,3,3-trifluoropropyl)piperidine-4-carboxamide] | 2320 | 2.7 | 29 | 210 | 1340 | 150 | – | 1140 | – | – | – | –
18 | [2H]C([2H])([2H])n1cc(-c2ccc3cnc(NC(=O)CN4CCCC4)cc3c2)cn1 [Compound 305, N-(6-(1-(Methyl-d3)-1H-pyrazol-4-yl)isoquinolin-3-yl)-2-(pyrrolidin-1-yl) acetamide] | 1940 | 8.2 | 51 | 247 | 1650 | 5510 | – | 1140 | – | – | – | –
19 | [2H]C([2H])([2H])n1cc(-c2ccc3cnc(NC(=O)CN4CCCCC4)cc3c2)cn1 [Compound 306, N-(6-(1-(Methyl-d3)-1H-pyrazol-4-yl)isoquinolin-3-yl)-2-(piperidin-1-yl) acetamide] | 3700 | 7.2 | 66 | 592 | 3200 | 282 | – | 2520 | – | – | – | –
20 | Cc1cc(-c2ccc3cnc(NC(=O)C4CCN(CCC(F)(F)F)CC4)cc3c2)on1 [Compound 307, N-(6-(3-Methylisoxazol-5-yl)isoquinolin-3-yl)-1-(3,3,3-trifluoropropyl) piperidine-4-carboxamide] | > 10000 | 6220 | 5260 | 2080 | > 10000 | 7150 | – | > 10000 | – | – | 25.9 | 4.3
21 | O=C(Nc1cc2cc(-c3cnco3)ccc2cn1)C1CCN(CCC(F)(F)F)CC1 [Compound 308, N-(6-(Oxazol-5-yl)isoquinolin-3-yl)-1-(3,3,3-trifluoropropyl)piperidine-4-carboxamide] | 1810 | 2.4 | 107 | 361 | > 10000 | > 10000 | 27.6 | 9230 | 32 | – | – | –
